Like-named read-outs stand apart in the source and are kept apart here.
What was measured:
MDA-MB-231 cells = experiment: In vitro cytotoxicity (MTT), MDA-MB-231 cells; type: cell-based, human
Excerpt: (§1) As suitable cell lines there may be mentioned: human adenocarcinoma cells (CRL-229, LoVo), human ovarian carcinoma cells (CRL-1572), human breast cancer cells (MDA-MB-231), normal mouse breast cells (HC-11), mouse leukaemia cells (CCL-46, P388D1), mouse leukaemia (CCL-219, L1210), CRL-1427, human promonocyte U937 and the like. Most of these cell lines are readily available from the American Type Culture Collection. Cells lines: 0-23, 0-23 clone 2.2, LR-73, LR-73 MDR-3, T47D and T47D (GST), having developed resistance to antineoplastic agents through different mechanisms of resistance were also tested in the same manner.
(§2) All cell lines are cultured by a standard procedure in RPMI-1640®mediumsupplemented with 10% fetal bovine serum and 100 ,pg/mL of penicillin and 100 μg/mL of streptomycin.
(§3) In order to evaluate the efficiency of the compounds of formula I, the following experiments are carried out. Cytotoxicity assays are conducted on LoVo, MDA-MB-231 and P388D1 cells. The choice of these cells has been motivated by the fact that they have been specifically identified as the cause of a large number of cancer in North America in the recent years.
(§4) Tumor cells are obtained from the American Type Culture Collection. The cells are suspended at a concentration of 2.5×10^4 cells/mL in a fresh culture media (RPMI-1640, supplemented with 10% fetal calf serum). The well plates (microtitration, 96 wells) are seeded with 100 μL of the cell suspension and incubated 24 hours at 37° C. in a humid atmosphere containing 5% CO2.100 μL of fresh culture media containing different concentrations of drugs to be tested (1 to 25 μM) are added in 8 wells of each plate, and the cells are further incubated for 3 additional days at 37° C. under the same conditions. Each experiment is conducted in triplicate. Cell survival is determined by MTT method, as taught in J. Immunol Methods, 1986, 89, 271 (Denizot et al.) and Int. J. Immunopharm, 1988. 10, 785 (Page et al). The method mainly consisted of a first removal of the culture media and addition to the plates of 20 μL of a MTT solution (5 mg/mL in PBS pH 7.4). The plates are incubated at 37° C. for 4 hours and then 200 μL of dimethylsuffoxide (DMSO) area added into the wells. The plates are agitated for 15 min at room temperature and the absorbance at 540 nm measured on Titertek MC Multiwell® spectrophotometer.
(§5) The method normally used by the American National Cancer Institute for the comparison of effectiveness between drugs is based upon ID50. The ID50 is the concentration at which half of tumor cell population is killed. A comparison of the antitumor agents of the present invention with chlorambucil, which is presently used commercially, is provided to illustrate the superiority of the former.

primary brain tumors = details: low doses; cited from earlier work
[1] = cited from earlier work; for biological half-life: approximately
[2] = administered orally or intravenously; cited from earlier work
LoVo cells = experiment: In vitro cytotoxicity (MTT), LoVo cells; type: cell-based; details: Homo sapiens, 72 h
Excerpt: as §1, §2, §3, §4, §5

P388D1 cells = experiment: In vitro cytotoxicity (MTT), P388D1 cells; type: cell-based; details: Mus musculus, P388D1, 72 h
Excerpt: as §1, §2, §3, §4, §5

[3] = Acute toxicity assay, i.p. in mice (survival); type: in vivo, BDF1 (C57BL/6×DBA/2) mice
Procedure: Chlorambucil and compound 36 of the present invention were dissolved in DMSO. Each drug solution was mixed with hydrogenated soybean oil in a ratio 1:9 v/v. 100 μL of this mixture was administered i.p. to BDF1 (C57BL/6×DBA/2) mice. For each concentration of drug, varying from 9.25 to 75 mg/kg for chlorambucil or from 9.25 to 296 mg/kg for compound 36, 6 mice were treated. Survival weight and fitness were measured as criteria of toxicity.

L1210 leukaemia cells = experiment: Antineoplastic assay, L1210 leukaemia in BDF1 mice; type: in vivo; details: 10 mg/kg, i.p. daily day 1 to day 9, L1210 in BDF1 mice
Procedure: L1210 leukaemia cells suspended in RPM1-1640 were washed, centrifuged and re-suspended in phosphate buffer saline (PBS) at a concentration of 5×10^5 cells/mL. 200 μL of the suspension were injected i.p. to BDF1 mice. From day 1 to day 9, mice were treated daily according to the NCI procedure taught in Protocols for screening chemical agents and natural products against animal tumors and other biological systems (3rd edition). Cancer Chem. Rep. Part 3 3 (2): 1-103) with i.p. injections of 10 μL of drug solution in DMSO mixed with 90 μL of hydrogenated soybean oil. Chlorambucil was tested at 1, 5 and 10 mg/kg/day and compounds 36 and 4 at 1, 10 and 50 mg/kg/day. For each concentration, six mice were treated. Control groups were treated i.p. with 100 μL of hydrogenated soybean oil containing 10% (v/v) DMSO.
The antineoplastic activity of a drug on mice bearing cancer tumors is evaluated by a value known in the art as the median survival time (T/C %). This value of T/C % is obtained by dividing the median survival time of treated mice by that of untreated mice, and the quotient is multiplied by 100. When the value of T/C % is lower than 85, the drug is considered toxic. On the other hand, a survival time greater than 125 indicates a significant antineoplastic action of the drug on cancer tumors.

[4] = Table 2, 3 days incubation, MTT, read-out: ID50 (LoVo)
[5] = Homo sapiens, MDA-MB-231, 72 h, Table 2, 3 days incubation, MTT, read-out: ID50 (MDA-MB-231)
[6] = Table 2, 3 days incubation, MTT, read-out: ID50 (P388 D1)
[7] = Homo sapiens, MDA-MB-231, 72 h, Table 1, 3 days incubation, MTT, read-out: ID50 on tumor cells, MDA-MB-231
[8] = Table 1, 3 days incubation, MTT, read-out: ID50 on tumor cells, LoVo
[9] = Table 1, 3 days incubation, MTT, read-out: ID50 on tumor cells, P388D1

Compound	IC50 (LoVo cells; [4]) [µM]	IC50 (MDA-MB-231 cells; [5]) [µM]	IC50 (P388D1 cells; [6]) [µM]	also measured
5-[3-(2-chloroethyl)ureido] 4,6-dimethyl pyridine [VIII]	–	–	–	IC50 (MDA-MB-231 cells; Table 1, 3 days incubation, MTT, read-out: ID50 on tumor cells, MDA-MB-231): 50 µM
O=NN(CCCl)C(=O)NCCCl [Carmustine]	–	–	–	activity in primary brain tumors (primary brain tumors): active in primary brain tumors; biological half-life [1]: 1-1.5 h; percentage bound to plasma proteins [1]: over 90%; side effects [2]: nausea, vomiting, alopecia, lymphopenia, leucopenia and bone marrow depression
O=C(O)CCCc1ccc(N(CCCl)CCCl)cc1 [Chlorambucil, reference compound]	–	–	–	IC50 (LoVo cells; read-out: ID50 (LoVo)): 9 µM; IC50 (MDA-MB-231 cells; Homo sapiens, MDA-MB-231, 72 h, read-out: ID50 (MDA-MB-231)): 11 µM; IC50 (P388D1 cells; read-out: ID50 (P388 D1)): 6.7 µM; Acute toxicity, survival ([3]; 9.25 mg/kg i.p.): 6/6; Acute toxicity, survival ([3]; 18.5 mg/kg i.p.): 6/6; Acute toxicity, survival ([3]; 37 mg/kg i.p.): 6/6; Acute toxicity, survival ([3]; 75 mg/kg i.p.): 0/6; median survival time (T/C %) (L1210 leukaemia cells): 160%; biological half-life [1]: 1-1.5 h; percentage bound to plasma proteins [1]: over 90%; side effects [2]: nausea, vomiting, alopecia, lymphopenia, leucopenia and bone marrow depression
CCc1cccc(NC(=O)NCCCl)c1 [Compound 2]	3.5	7.8	7	–
CCCc1ccc(NC(=O)NCCCl)cc1 [Compound 3]	9.8	12	11	–
CC(C)c1ccc(NC(=O)NCCCl)cc1 [Compound 4]	1.3	2	2.2	median survival time (T/C %) (L1210 leukaemia cells): 164%
CCC(C)c1ccc(NC(=O)NCCCl)cc1 (stereo not shown) [Compound 5]	1.6	2.2	2.4	–
CCCCCc1ccc(NC(=O)NCCCl)cc1 [Compound 6]	5.5	6	7	–
CCCCCCc1ccc(NC(=O)NCCCl)cc1 [Compound 7]	6.2	7.3	7.9	–
O=C(NCCCl)Nc1ccc(C2CCCCC2)cc1 [Compound 8]	22	29	22	–
CCCCCCCc1ccc(NC(=O)NCCCl)cc1 [Compound 9]	15	16	18	–
CCCCCCCCc1ccc(NC(=O)NCCCl)cc1 [Compound 10]	29	33	32	–
CCOc1cccc(NC(=O)NCCCl)c1 [Compound 14]	35	33	42	–
CCCCCOc1ccc(NC(=O)NCCCl)cc1 [Compound 15]	16	22	28	–
CCCCCCOc1ccc(NC(=O)NCCCl)cc1 [Compound 16]	16	22	17	–
O=C(NCCCl)Nc1ccc(CCO)cc1 [Compound 36]	–	–	–	Acute toxicity, survival ([3]; 9.25 mg/kg i.p.): 6/6; Acute toxicity, survival ([3]; 18.5 mg/kg i.p.): 6/6; Acute toxicity, survival ([3]; 37 mg/kg i.p.): 6/6; Acute toxicity, survival ([3]; 75 mg/kg i.p.): 6/6; Acute toxicity, survival ([3]; 111 mg/kg i.p.): 6/6; Acute toxicity, survival ([3]; 148 mg/kg i.p.): 6/6; Acute toxicity, survival ([3]; 222 mg/kg i.p.): 6/6; Acute toxicity, survival ([3]; 296 mg/kg i.p.): 6/6; median survival time (T/C %) (L1210 leukaemia cells): 140%
CCSc1ccc(NC(=O)NCCCl)cc1 [Compound 39]	–	17	–	–
O=C(NCCCl)Oc1ccc([N+](=O)[O-])cc1 [Compound 40, 4-nitro phenyl N-(2chloroethyl) carbamate]	7	10	8.2	–
Cc1cc(OC(=O)NCCCl)ccc1[N+](=O)[O-] [Compound 47]	7.2	7.5	8	–
Cc1ccc(OC(=O)NCCCl)cc1C [Compound 50]	30	40	40	–
O=C(NCCCl)Oc1cccc(Cl)c1 [Compound 63]	7.5	8.5	5	–
O=C(NCCCl)Nc1ccc2[nH]ccc2c1 [IX, 5-[3-(2-chloroethyl)ureido]indole]	–	–	–	IC50 (MDA-MB-231 cells; [7]): 70 µM
O=C(NCCCl)Nc1ccc2c(c1)Cc1ccccc1-2 [V, 2-[3-(2chloroethyl)ureido]fluorene]	–	–	–	IC50 (LoVo cells; [8]): 5 µM; IC50 (MDA-MB-231 cells; [7]): 4 µM; IC50 (P388D1 cells; [9]): 4 µM
O=C(NCCCl)Nc1ccc2c(c1)CCC2 [VI, 5-[3-(2-chloroethyl)ureido]indane]	–	–	–	IC50 (LoVo cells; [8]): 5 µM; IC50 (MDA-MB-231 cells; [7]): 7 µM; IC50 (P388D1 cells; [9]): 7 µM
O=C(NCCCl)Nc1ccc2cn[nH]c2c1 [VII, 6-[3-(2-chloroethyl)ureido]indazole]	–	–	–	IC50 (LoVo cells; [8]): 31 µM; IC50 (MDA-MB-231 cells; [7]): 29 µM; IC50 (P388D1 cells; [9]): 76 µM
